Usually IC50 stands for the concentration at which inhibition is half-maximal. One may read the inhibition in vivo as the change of the read-out against control, counted positive when it falls.

Test [1] deals with T1, RAC-alpha serine/threonine-protein kinase (Homo sapiens, UniProt P31749). In words: Inhibition of AKT1.
The target of test [2] is T1, RAC-alpha serine/threonine-protein kinase. Description: Inhibition of AKT1 in human U87 cells after 2 hrs by ELISA. The test is classed as cell-based, U-87MG ATCC.
Test [3] is described as follows: Antitumor activity against human myristoylated Akt1-activated rat Rat-1a cells xenografted mouse assessed as tumor growth inhibition at 50 mg/kg, qd, po for 10 days. Type of test: functional. As to conditions: 240 h. (A xenograft is tissue or cells of one species grown in another, often human tumour cells in immunodeficient mice.)
Test [4] can be described thus: Inhibition of PKA.

T1 sequence (P31749 whole entry): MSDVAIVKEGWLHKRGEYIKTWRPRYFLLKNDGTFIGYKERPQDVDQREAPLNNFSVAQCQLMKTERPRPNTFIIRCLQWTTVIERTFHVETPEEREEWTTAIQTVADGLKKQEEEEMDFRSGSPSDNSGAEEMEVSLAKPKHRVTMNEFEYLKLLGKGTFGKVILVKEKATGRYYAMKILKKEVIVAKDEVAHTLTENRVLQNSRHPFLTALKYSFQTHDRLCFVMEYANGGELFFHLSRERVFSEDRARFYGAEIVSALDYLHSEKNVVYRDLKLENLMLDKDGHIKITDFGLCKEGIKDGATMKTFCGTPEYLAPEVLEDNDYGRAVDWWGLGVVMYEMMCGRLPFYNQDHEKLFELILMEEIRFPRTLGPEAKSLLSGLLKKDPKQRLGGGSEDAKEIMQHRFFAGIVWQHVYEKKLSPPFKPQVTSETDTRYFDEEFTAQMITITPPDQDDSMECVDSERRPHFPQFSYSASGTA

The compound `c1ccc(Cc2c[nH]c3ncnc(N4CC5(CCNCC5)c5ccccc54)c23)cc1` gave an IC50 in test [1] of 1330 nM.
The same measure, in the same setting: under `Cn1ccc2c(Nc3ccccc3-c3nnc[nH]3)ncnc21` stands greater than 10000 nM.
Still for that read-out and setting: under `CC(=O)N1CCC2(CC1)CN(c1ncnc3[nH]ccc13)c1ccc(F)cc12` stands 2790 nM.
On to `CN1CCC2(CC1)CN(c1ncnc3[nH]ccc13)c1ccccc12`, for which the IC50 in test [1] is 12.7 nM; in test [2] it was 136 nM.
`Cc1nnc(-c2ccc(Cl)cc2Nc2ncnc3[nH]ccc23)[nH]1` registered an IC50 in test [1] greater than 10000 nM.
Same read-out and setting: under `Cc1c[nH]c2ncnc(Nc3ccccc3-c3nnc[nH]3)c12` stands 425 nM.
For `CS(=O)(=O)N1CCC2(CC1)CN(c1ncnc3[nH]ccc13)c1ccc(F)cc12`, the IC50 in test [1] worked out at 3190 nM.
On to `Clc1c[nH]c2ncnc(N3CC4(CCNCC4)c4ccccc43)c12`, for which the 50% inhibitory concentration (IC50) is 5.8 nM in test [1] and 64 nM in test [2].
Compound `c1nc(N2CCc3nc[nH]c3C2)c2cc[nH]c2n1` gave an IC50 in test [1] of 294 nM.
Turning to `N#Cc1c[nH]c2ncnc(N3CC4(CCNCC4)c4ccccc43)c12`, the inhibition in vivo at 50 mg/kg in test [3] was 68%. Further, the IC50 worked out at 2.4 nM in test [1], 3.6 nM in test [4] and 50 nM in test [2].
Consider `Cc1nnc(-c2cc(Cl)ccc2Nc2ncnc3[nH]ccc23)[nH]1`, for which, in test [1], half-maximal inhibition (IC50) required 171 nM.
`Cc1c[nH]c2ncnc(N3CC4(CCNCC4)c4ccccc43)c12`: the IC50 in test [1] was determined as 4.8 nM; in test [2], 122 nM.
Consider `Clc1ccc2c(c1)C1(CCNCC1)CN2c1ncnc2[nH]ccc12`, for which the IC50 stood at 4.8 nM in test [1] and 51 nM in test [2].
In test [1], `c1ccc(-c2nnc[nH]2)c(Nc2ncnc3[nH]ccc23)c1` came in with an IC50 of 210 nM.
On the same count and under the same terms, under `Clc1c[nH]c2ncnc(Nc3ccccc3-c3nnc[nH]3)c12` stands 318 nM.
With `c1ccc2c(c1)N(c1ncnc3[nH]ccc13)CC21CCNCC1`, the values for the IC50 in test [1] and in test [2] were 5.3 nM and 96 nM, respectively.
For `Fc1ccc2c(c1)C1(CCNCC1)CN2c1ncnc2[nH]ccc12`, the IC50 is 3.1 nM in test [1] and 75 nM in test [2].

(Values after ChEMBL document CHEMBL1143084, “Synthesis and structure based optimization of novel Akt inhibitors” (Bioorg Med Chem Lett, 2008).)
